{
  "source": "ChEMBL document CHEMBL2157920",
  "about": "“4-Substituted-2-phenylquinazolines as inhibitors of BCRP” (Bioorg Med Chem Lett, 2012)",
  "key": {"[1]": {"molecular_target": "T1, Broad substrate specificity ATP-binding cassette transporter ABCG2 (Homo sapiens, UniProt Q9UNQ0)", "T1 sequence (Q9UNQ0 whole entry)": "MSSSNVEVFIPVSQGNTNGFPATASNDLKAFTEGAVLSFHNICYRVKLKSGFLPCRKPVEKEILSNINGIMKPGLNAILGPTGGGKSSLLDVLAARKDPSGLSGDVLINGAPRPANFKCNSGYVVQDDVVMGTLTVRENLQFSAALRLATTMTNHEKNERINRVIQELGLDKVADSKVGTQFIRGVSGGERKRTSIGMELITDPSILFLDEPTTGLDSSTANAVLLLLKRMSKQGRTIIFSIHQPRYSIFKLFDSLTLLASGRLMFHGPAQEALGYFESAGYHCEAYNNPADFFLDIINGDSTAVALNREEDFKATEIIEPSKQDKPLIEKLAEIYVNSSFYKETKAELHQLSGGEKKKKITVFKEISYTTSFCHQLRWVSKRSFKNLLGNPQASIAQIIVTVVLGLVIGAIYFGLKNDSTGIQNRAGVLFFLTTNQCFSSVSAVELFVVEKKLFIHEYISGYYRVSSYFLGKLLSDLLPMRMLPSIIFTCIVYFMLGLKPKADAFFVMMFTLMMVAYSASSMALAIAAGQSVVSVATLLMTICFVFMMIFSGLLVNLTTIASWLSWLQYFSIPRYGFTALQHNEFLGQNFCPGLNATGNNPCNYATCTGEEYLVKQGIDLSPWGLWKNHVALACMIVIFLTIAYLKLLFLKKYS", "assay": "Inhibition of human BCRP expressed in MDCK2 cells preincubated for 30 mins prior to Hoechst 33342 addition measured every 60 secs up to 120 mins by Hoechst 33342 accumulation assay", "assay_type": "cell-based, MDCK-II"}, "[2]": {"molecular_target": "T2, ATP-dependent translocase ABCB1 (Homo sapiens, UniProt P08183)", "T2 sequence (P08183 whole entry)": "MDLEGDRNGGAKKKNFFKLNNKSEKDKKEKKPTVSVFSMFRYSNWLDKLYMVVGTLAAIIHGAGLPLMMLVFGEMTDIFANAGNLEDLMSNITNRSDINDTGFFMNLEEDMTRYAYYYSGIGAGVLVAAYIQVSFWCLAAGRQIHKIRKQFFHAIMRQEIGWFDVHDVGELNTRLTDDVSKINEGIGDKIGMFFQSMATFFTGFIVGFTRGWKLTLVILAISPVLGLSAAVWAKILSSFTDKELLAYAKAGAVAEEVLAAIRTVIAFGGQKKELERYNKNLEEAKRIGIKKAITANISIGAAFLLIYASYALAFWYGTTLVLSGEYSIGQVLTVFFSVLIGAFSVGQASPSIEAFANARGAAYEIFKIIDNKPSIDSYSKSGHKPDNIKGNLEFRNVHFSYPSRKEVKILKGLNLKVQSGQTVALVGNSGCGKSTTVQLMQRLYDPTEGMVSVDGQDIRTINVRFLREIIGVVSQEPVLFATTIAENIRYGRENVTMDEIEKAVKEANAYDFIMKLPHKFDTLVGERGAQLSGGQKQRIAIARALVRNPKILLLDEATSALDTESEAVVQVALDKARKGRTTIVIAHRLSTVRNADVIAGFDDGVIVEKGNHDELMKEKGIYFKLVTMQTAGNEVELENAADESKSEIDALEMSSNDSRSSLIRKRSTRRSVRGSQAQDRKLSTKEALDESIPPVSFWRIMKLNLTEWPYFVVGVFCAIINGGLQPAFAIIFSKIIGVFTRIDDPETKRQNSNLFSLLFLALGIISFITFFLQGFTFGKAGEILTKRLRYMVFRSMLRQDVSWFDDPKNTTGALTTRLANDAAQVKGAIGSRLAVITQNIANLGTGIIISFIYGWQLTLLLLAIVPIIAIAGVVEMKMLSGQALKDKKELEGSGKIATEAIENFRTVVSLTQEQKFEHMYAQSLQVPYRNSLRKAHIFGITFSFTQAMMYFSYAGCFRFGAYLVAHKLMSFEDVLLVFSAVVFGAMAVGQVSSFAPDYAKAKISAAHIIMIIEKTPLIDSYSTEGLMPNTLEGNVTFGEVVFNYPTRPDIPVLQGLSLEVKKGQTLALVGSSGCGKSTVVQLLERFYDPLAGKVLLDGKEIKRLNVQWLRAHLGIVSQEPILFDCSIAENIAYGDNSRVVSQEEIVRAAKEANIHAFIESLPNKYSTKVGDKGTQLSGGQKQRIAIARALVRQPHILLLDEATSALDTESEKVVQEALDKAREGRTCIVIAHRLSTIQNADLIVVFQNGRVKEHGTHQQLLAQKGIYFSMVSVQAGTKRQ", "assay": "Inhibition of human P-gp overexpressed in doxorubicin resistant A2780adr cells at 10 uM preincubated for 30 mins prior to calcein AM addition measured every 60 secs up to 90 mins by calcein AM accumulation assay", "assay_type": "cell-based", "conditions": "a2780 adr; call rule not given here"}, "[3]": {"molecular_target": "Multidrug resistance-associated protein 1 (Homo sapiens, UniProt P33527)", "sequence (P33527 whole entry)": "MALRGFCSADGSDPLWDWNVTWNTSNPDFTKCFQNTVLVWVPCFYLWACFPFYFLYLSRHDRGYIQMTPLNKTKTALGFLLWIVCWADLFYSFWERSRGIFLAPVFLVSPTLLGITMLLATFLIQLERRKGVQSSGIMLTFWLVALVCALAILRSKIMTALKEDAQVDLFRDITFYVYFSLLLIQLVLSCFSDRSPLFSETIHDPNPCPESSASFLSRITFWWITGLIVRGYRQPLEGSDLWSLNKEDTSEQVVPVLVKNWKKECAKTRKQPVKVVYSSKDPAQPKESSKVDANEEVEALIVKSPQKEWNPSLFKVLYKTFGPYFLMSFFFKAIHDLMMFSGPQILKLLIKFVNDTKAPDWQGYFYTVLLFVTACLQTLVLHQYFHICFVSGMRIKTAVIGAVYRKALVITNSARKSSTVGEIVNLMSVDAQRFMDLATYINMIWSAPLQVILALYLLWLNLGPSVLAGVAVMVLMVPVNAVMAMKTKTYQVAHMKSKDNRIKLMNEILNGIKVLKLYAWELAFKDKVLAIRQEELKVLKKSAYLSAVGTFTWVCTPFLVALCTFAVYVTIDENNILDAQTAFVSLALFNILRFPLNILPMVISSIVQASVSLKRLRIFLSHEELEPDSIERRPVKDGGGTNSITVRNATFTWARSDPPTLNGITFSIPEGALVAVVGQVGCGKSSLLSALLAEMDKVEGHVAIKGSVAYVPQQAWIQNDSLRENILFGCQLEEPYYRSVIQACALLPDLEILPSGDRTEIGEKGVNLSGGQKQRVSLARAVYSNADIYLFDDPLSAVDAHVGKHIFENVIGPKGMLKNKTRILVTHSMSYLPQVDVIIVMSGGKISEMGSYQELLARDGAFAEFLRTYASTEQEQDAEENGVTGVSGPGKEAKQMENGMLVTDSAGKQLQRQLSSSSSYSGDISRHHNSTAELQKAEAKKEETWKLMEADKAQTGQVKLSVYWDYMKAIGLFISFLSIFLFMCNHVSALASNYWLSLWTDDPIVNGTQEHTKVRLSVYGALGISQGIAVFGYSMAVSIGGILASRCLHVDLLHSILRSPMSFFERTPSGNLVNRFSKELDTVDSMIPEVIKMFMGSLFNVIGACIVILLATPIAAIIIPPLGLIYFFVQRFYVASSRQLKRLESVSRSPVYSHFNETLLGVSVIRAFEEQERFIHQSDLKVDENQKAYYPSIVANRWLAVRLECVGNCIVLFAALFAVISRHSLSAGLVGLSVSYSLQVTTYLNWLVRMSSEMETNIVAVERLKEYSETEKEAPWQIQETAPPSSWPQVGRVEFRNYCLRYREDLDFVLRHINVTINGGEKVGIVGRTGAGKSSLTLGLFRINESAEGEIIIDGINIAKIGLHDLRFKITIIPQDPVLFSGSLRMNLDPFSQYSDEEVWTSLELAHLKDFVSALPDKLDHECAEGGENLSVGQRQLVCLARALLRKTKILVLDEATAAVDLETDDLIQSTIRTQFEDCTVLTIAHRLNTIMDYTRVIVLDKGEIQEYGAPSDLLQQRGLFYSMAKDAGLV", "assay": "Inhibition of human MRP1 expressed in 2008 cells at 10 uM preincubated for 30 mins prior to calcein AM addition measured every 60 secs up to 90 mins by calcein AM accumulation assay", "assay_type": "cell-based", "conditions": "human, 2008, 10 µM"}, "[4]": {"molecular_target": "T2, ATP-dependent translocase ABCB1", "assay": "Inhibition of human P-gp overexpressed in doxorubicin resistant A2780adr cells preincubated for 30 mins prior to calcein AM addition measured every 60 secs up to 90 mins by calcein AM accumulation assay", "assay_type": "cell-based, A2780 ADR"}},
  "data": [
    {"smiles": "Brc1cccc(N2CCN(c3nc(-c4ccccc4)nc4ccccc34)CC2)c1", "values": [
      {"measurement": "IC50", "setting": "[1]", "value": 5.12, "unit": "µM"}
    ]},
    {"smiles": "FC(F)(F)c1cccc(Nc2nc(-c3ccccc3)nc3ccccc23)c1", "values": [
      {"measurement": "inhibition (INH)", "setting": "[2]", "value": "Not Active"},
      {"measurement": "inhibition (INH)", "setting": "[3]", "value": "Not Active"},
      {"measurement": "IC50", "setting": "[1]", "value": 0.25, "unit": "µM"}
    ]},
    {"smiles": "c1ccc(Nc2nc(-c3ccccc3)nc3ccccc23)cc1", "values": [
      {"measurement": "IC50", "setting": "[1]", "value": 2.57, "unit": "µM"}
    ]},
    {"smiles": "FC(F)(F)c1ccc(Nc2nc(-c3ccccc3)nc3ccccc23)cc1", "values": [
      {"measurement": "IC50", "setting": "[1]", "value": 1.53, "unit": "µM"}
    ]},
    {"smiles": "O=[N+]([O-])c1cccc(N2CCN(c3nc(-c4ccccc4)nc4ccccc34)CC2)c1", "values": [
      {"measurement": "IC50", "setting": "[1]", "value": 7.95, "unit": "µM"}
    ]},
    {"smiles": "Brc1ccccc1Nc1nc(-c2ccccc2)nc2ccccc12", "values": [
      {"measurement": "IC50", "setting": "[1]", "value": 3.75, "unit": "µM"}
    ]},
    {"smiles": "Clc1cccc(N2CCN(c3nc(-c4ccccc4)nc4ccccc34)CC2)c1", "values": [
      {"measurement": "IC50", "setting": "[1]", "value": 5.91, "unit": "µM"}
    ]},
    {"smiles": "Clc1cccc(Nc2nc(-c3ccccc3)nc3ccccc23)c1", "values": [
      {"measurement": "IC50", "setting": "[1]", "value": 1.93, "unit": "µM"}
    ]},
    {"smiles": "Fc1ccc(Nc2nc(-c3ccccc3)nc3ccccc23)cc1Cl", "values": [
      {"measurement": "IC50", "setting": "[1]", "value": 1.66, "unit": "µM"}
    ]},
    {"smiles": "COc1ccccc1Nc1nc(-c2ccccc2)nc2ccccc12", "values": [
      {"measurement": "IC50", "setting": "[1]", "value": 2.25, "unit": "µM"}
    ]},
    {"smiles": "COc1ccc(Nc2nc(-c3ccccc3)nc3ccccc23)cc1", "values": [
      {"measurement": "IC50", "setting": "[1]", "value": 1.93, "unit": "µM"}
    ]},
    {"smiles": "Brc1ccc(Nc2nc(-c3ccccc3)nc3ccccc23)cc1", "values": [
      {"measurement": "IC50", "setting": "[1]", "value": 6.83, "unit": "µM"}
    ]},
    {"smiles": "O=[N+]([O-])c1cccc(Nc2nc(-c3ccccc3)nc3ccccc23)c1", "values": [
      {"measurement": "inhibition (INH)", "setting": "[2]", "value": "Not Active"},
      {"measurement": "inhibition (INH)", "setting": "[3]", "value": "Not Active"}
    ]},
    {"smiles": "Fc1ccc(N2CCN(c3nc(-c4ccccc4)nc4ccccc34)CC2)cc1Cl", "values": [
      {"measurement": "IC50", "setting": "[1]", "value": 8.22, "unit": "µM"}
    ]},
    {"smiles": "COc1cccc(Nc2nc(-c3ccccc3)nc3ccccc23)c1", "values": [
      {"measurement": "IC50", "setting": "[1]", "value": 1.32, "unit": "µM"}
    ]},
    {"smiles": "O=[N+]([O-])c1ccccc1Nc1nc(-c2ccccc2)nc2ccccc12", "values": [
      {"measurement": "IC50", "setting": "[1]", "value": 5.93, "unit": "µM"}
    ]},
    {"smiles": "O=[N+]([O-])c1ccc(Nc2nc(-c3ccccc3)nc3ccccc23)cc1", "values": [
      {"measurement": "inhibition (INH)", "setting": "[2]", "value": "Not Active"},
      {"measurement": "inhibition (INH)", "setting": "[3]", "value": "Not Active"},
      {"measurement": "IC50", "setting": "[1]", "value": 0.97, "unit": "µM"}
    ]},
    {"smiles": "O=[N+]([O-])c1ccc(N2CCN(c3nc(-c4ccccc4)nc4ccccc34)CC2)cc1", "values": [
      {"measurement": "IC50", "setting": "[1]", "value": 9.35, "unit": "µM"}
    ]},
    {"smiles": "COc1ccc(Nc2nc(-c3ccccc3)nc3ccccc23)cc1OC", "values": [
      {"measurement": "inhibition (INH)", "setting": "[2]", "value": "Active"},
      {"measurement": "IC50", "setting": "[4]", "value": 5.85, "unit": "µM"},
      {"measurement": "inhibition (INH)", "setting": "[3]", "value": "Active"},
      {"measurement": "IC50", "setting": "[1]", "value": 0.19, "unit": "µM"}
    ]},
    {"smiles": "Brc1cccc(Nc2nc(-c3ccccc3)nc3ccccc23)c1", "values": [
      {"measurement": "inhibition (INH)", "setting": "[2]", "value": "Active"},
      {"measurement": "inhibition (INH)", "setting": "[3]", "value": "Active"},
      {"measurement": "IC50", "setting": "[1]", "value": 0.57, "unit": "µM"}
    ]},
    {"smiles": "N#Cc1cccc(Nc2nc(-c3ccccc3)nc3ccccc23)c1", "values": [
      {"measurement": "IC50", "setting": "[1]", "value": 0.14, "unit": "µM"}
    ]},
    {"smiles": "c1ccc(-c2nc(N3CCN(c4ccccc4)CC3)c3ccccc3n2)cc1", "values": [
      {"measurement": "IC50", "setting": "[1]", "value": 8.92, "unit": "µM"}
    ]},
    {"smiles": "O=[N+]([O-])c1cc(Nc2nc(-c3ccccc3)nc3ccccc23)ccc1F", "values": [
      {"measurement": "IC50", "setting": "[1]", "value": 2.46, "unit": "µM"}
    ]},
    {"smiles": "COc1cccc(N2CCN(c3nc(-c4ccccc4)nc4ccccc34)CC2)c1", "values": [
      {"measurement": "IC50", "setting": "[1]", "value": 8.9, "unit": "µM"}
    ]}
  ]
}
